In PubChem BioAssay (NCI):
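Method: 48-hour compound exposure of cells in 96-well plates, five concentrations, linear interpolation of endpoints. Here, GI50 denotes the concentration required for 50% inhibition of growth. At the TGI there is no net growth.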

Experiments:
Test in all cases: DTP human tumour cell line panel, 48 h
HCC-2998 colon = system: HCC-2998 colon
HOP-92 NSCLC = system: HOP-92 NSCLC
T-47D breast = system: T-47D breast
NCI-H226 lung = system: NCI-H226 lung
HS 578T breast = system: HS 578T breast
COLO 205 colon = system: COLO 205 colon
SK-MEL-2 melanoma = system: SK-MEL-2 melanoma
SK-OV-3 ovarian = system: SK-OV-3 ovarian
MDA-MB-435 = system: MDA-MB-435
SNB-19 CNS = system: SNB-19 CNS

Row | SMILES | GI50 (HCC-2998 colon) [µM] | TGI (HCC-2998 colon) [µM] | GI50 (HOP-92 NSCLC) [µM] | TGI (HOP-92 NSCLC) [µM] | GI50 (T-47D breast) [µM] | TGI (T-47D breast) [µM] | GI50 (NCI-H226 lung) [µM] | TGI (NCI-H226 lung) [µM] | GI50 (HS 578T breast) [µM] | TGI (HS 578T breast) [µM] | GI50 (COLO 205 colon) [µM] | TGI (COLO 205 colon) [µM] | GI50 (SK-MEL-2 melanoma) [µM] | TGI (SK-MEL-2 melanoma) [µM] | GI50 (SK-OV-3 ovarian) [µM] | TGI (SK-OV-3 ovarian) [µM] | GI50 (MDA-MB-435) [µM] | TGI (MDA-MB-435) [µM] | GI50 (SNB-19 CNS) [µM] | TGI (SNB-19 CNS) [µM]
1 | Cc1c(C(N)=O)sc2c1c(=O)n(Cc1ccccc1)c1nnc(-c3ccc(Br)cc3)n21 | 1.91 | 14.6 | 5.09 | 21.3 | 3.38 | 18.9 | 2.46 | 9.82 | 5.2 | 54.9 | 3.12 | 15 | 5.73 | 18.7 | 2.97 | 16.3 | 3.49 | 20.7 | 2.91 | 17.5
2 | N#CN1CC[C@H](C(=O)Nc2cc3cc(C(N)=O)ccc3cn2)C1 | 0.144 | 10.8 | 0.0692 | 0.542 | 0.016 | 0.0651 | 0.238 | 5.08 | 0.0534 | 3.52 | 0.0855 | 0.268 | 0.0266 | 0.107 | 0.37 | > 100 | 0.045 | 13.2 | 0.144 | > 100
3 | COc1ccc(/C=C\c2cc(OC)c(OC)c(OC)c2)cc1OCC(=O)Nc1ccc2nc(C)sc2c1 | 6.9 | > 100 | 2.38 | 7.62 | 9.41 | 33.8 | 2.75 | 12 | 4.32 | > 100 | 4.4 | 16.2 | 3.15 | 19.1 | 5.27 | 50.4 | 2.13 | 6.18 | 3.89 | > 100
4 | COc1cccc(/C(C)=N/NC(=O)CSc2nc3ccccc3c(=O)n2CCc2ccc(S(N)(=O)=O)cc2)c1 | 24 | 62.9 | 1.95 | 11.9 | 6.44 | 29.3 | 3.29 | 13 | 3.54 | 15.9 | 4.13 | 21.1 | 3.42 | 16.3 | 2.26 | 4.88 | 3.18 | 12.6 | 2.89 | 7.87
5 | CCS(=O)(=O)c1ccc(OC)c(Nc2ncc(-c3ccccc3Cl)o2)c1 | 18.1 | > 25 | 3.29 | 21.1 | 8.57 | > 25 | 7.72 | > 25 | 11.5 | > 25 | 6.67 | 15.4 | 9.06 | > 21.6 | 8.47 | > 25 | 6.73 | > 22.1 | > 21.9 | > 25
6 | Cc1cc(O)c(/C=N/C(=S)Nc2ccccc2)c(=O)o1 | – | > 100 | – | > 100 | – | > 100 | – | > 100 | – | > 100 | – | > 100 | – | > 100 | – | > 100 | – | > 100 | – | > 100
7 | COc1ccc(C2C=C(c3ccc(Cl)cc3)N=C3SC=C(C)N32)c(Br)c1 (centres undefined) | 4.43 | 14.6 | 3.45 | 22 | 3.45 | 21.5 | 11.4 | > 100 | 2.19 | 7.5 | 3.54 | 10.3 | 4.79 | 18.1 | 3.57 | 12.6 | 3.02 | 14.9 | 5.25 | 21.7
8 | Cc1cccc(NC(=O)/C=C/c2ccc([N+](=O)[O-])cc2)c1 | – | 32.7 | – | 50.7 | – | > 55.9 | – | > 72 | – | > 87 | – | > 56.3 | – | 49.4 | – | > 61.5 | – | > 52.3 | – | > 47.9
9 | COc1ccc(C(CC(=O)c2ccccc2)C(C(=O)c2ccccc2)C(c2ccc(OC)cc2)C2C(=O)NC(=S)NC2=O)cc1 (centres undefined) | 2.46 | 16.6 | 3.1 | 43.1 | 13.2 | > 100 | 38.4 | > 100 | 10.5 | 47.9 | 8.86 | > 100 | 13.8 | 49 | > 100 | > 100 | 10.6 | 35.3 | 24.9 | > 100
10 | NC(=S)N=Nc1c(O)c2ccccc2c2ccccc12 | 36.3 | > 100 | 18.4 | 51.6 | 14 | > 100 | 21.3 | 70.1 | 2.17 | 7.96 | 22.8 | 73.6 | 14.9 | 33.8 | 21.5 | 54.2 | 1.85 | 3.45 | 3.12 | 12.6
11 | COc1ccccc1NS(=O)(=O)c1ccc2oc(SC(C)C)nc2c1 | 27 | 51.4 | – | 13 | 8.98 | > 100 | 10.3 | 43.9 | 33.6 | > 100 | 18.6 | 40.1 | 15.6 | 61.5 | 33.5 | > 100 | 18.7 | 94 | 37.7 | > 100
12 | C=C(C)C(=O)O[C@@H]1C/C(C)=C\[C@H](OC(C)=O)C[C@](C)(O)/C=C2/OC(=O)C(COC(C)=O)=C21 | – | 1.64 | – | 37.5 | – | 22.1 | – | 6.17 | – | 47 | – | 2.37 | – | 14.1 | – | 18.7 | – | 2.8 | – | 41.8
13 | C[C@]12CCNC(=O)C=C1CC[C@@H]1C2CC[C@@]2(C)C1CC[C@@H]2OC(=O)COc1ccc(N(CCCl)CCCl)cc1 (some centres undefined) | – | 15 | – | 23.3 | – | 9.03 | – | 28.5 | – | 98.1 | – | 23.9 | – | 44.4 | – | 21.7 | – | 74.5 | – | 50.7
